# Measured values reported in patent US12146005B2, “Compositions and methods for treatment of fungal infections” (THE UNIVERSITY OF SOUTHERN CALIFORNIA, priority 2019, dated 2024).
# “Also recorded” adds a separate entry of the source. Where two headings read alike, the source gives them in different places. Bridge positions count the residues as written; N and C are the ends.
# Legend:
# [1] = tested on: C. albicans strain 43001; details: cited from earlier work
# [2] = tested on: C. albicans strain 53264; details: cited from earlier work
# [3] = tested on: C. albicans SC5314; assay: In vivo model of disseminated candidiasis in BALB/c mice (survival, body weight, renal fungal burden); details: for survival compared to saline controls, P (log-rank analysis): observed 26 days p.i.; for survival compared to saline controls, P (log-rank analysis) / survival efficacy, comparison in words: FIG. 8; for renal fungal burden reduced to a greater extent than fluconazole, P (Fisher's LSD test): peptide 0.1 or 0.25 mg/kg versus fluconazole 5 mg/kg; for survival efficacy relative to MTD1280: candidemia model, survival as metric, 0.1 mg/kg versus MTD1280 0.25 mg/kg, FIGS. 10 to 13; for survival by end point analysis versus fluconazole: χ^2 analysis at day 30 p.i.
# Experimental: Mice were infected i.v. at T=0 with 3×105 blastospores of C. albicans SC5314.
# Mice were infected i.v. at T=0 with 3×10^5 blastospores of C. albicans SC5314. At T=24 h, mice were treated i.p. daily for 7 d w.
# Suitable cyclic tetradecapeptides can be identified by screening against a murine model for disseminated candidiasis. C. albicans SC5314 obtained from American Type Culture Collection can be used as a suitable reference strain. […] Typical antifungal drugs include caspofungin and fluconazole. Cyclic tetradecapeptides to be tested and antifungal drugs can be suspended or dissolved in water or isotonic saline and administered by one or more of intravenous, subcutaneous, intramuscular, and/or intraperitoneal injection.
# In vitro activity of synthetic cyclic tetradecapeptides and antifungal compounds can be determined using conventional culture techniques that are known in the art as described above in relation to RTD-1, and can be used to determine sub-antifungal concentrations. Systemic or disseminated candidiasis can be modeled in vivo by, for example, challenging BALB/c female mice with 0.15 to 2 mL of C. albicans (reference strain or resistant strain) at from about 2×10^5 to about 2×10^7 CFU/mL of the organism. Animals can the be treated with candidate synthetic cyclic tetradecapeptide before challenge with the pathogen, at the time of pathogen challenge, or after challenge with the pathogen. Antifungal drugs and/or candidate synthetic cyclic tetradecapeptide can be administered by intravenous, subcutaneous, intramuscular, and/or intraperitoneal injection in such an in vivo model of systemic or disseminated candidiasis.
# In activity studies the synthetic cyclic tetradecapeptide MTD1280 (SEQ ID NO. 6), which was identified initially as having significant antifungal activity, was used as a model peptide. Briefly, 7-8 week old, immunocompetent, female BALB/c mice were challenged i.v. at T=0 with 3×10^5 CFU of C. albicans SC5314. […] As shown, caspofungin (Caspo) is not effective against this strain of C. albicans.
# Candidate synthetic cyclic tetradecapeptides were pre-screened for tolerance by determining a lack of toxicity when administered at >5 mg/kg.
# [4] = tested on: C. albicans SC5314; details: strain SC5314, cited from earlier work
# [5] = tested on: C. albicans; details: cited from earlier work
# [6] = tested on: susceptible and multiple drug resistant strains of C. albicans; details: cited from earlier work
# [7] = tested on: C. albicans; assay: In vitro antifungal activity, sub-antifungal concentration, C. albicans in general; assay type: cell-based, Candida albicans; details: in the presence of serum
# Excerpt: Within the context of this application, a “sub-antifungal concentration” in regard to a fungal pathogen should be understood to be a concentration at which the compound so described has no antifungal effect when applied to the fungal pathogen in vitro (e.g. in a liquid culture medium), e.g. in the absence of host immune effectors.
# Basso et al. (Basso et al., “Rhesus theta defensin 1 promotes long term survival in systemic candidiasis by host directed mechanisms” Nature Scientific Reports (2019) 9: 16905) provides an example of determination of sub-antifungal concentration for the native θ-defensin RTD-1 in regard to different strains of Candida albicans. Cultures of different strains of C. albicans were established in RPMI media or RPMI media containing 50% serum. […] MFC was determined as the lowest concentration that provided 99% killing relative to the input inoculum. MIC was determined as the lowest concentration that inhibited growth.
# Based on such data, for C. albicans a sub-antifungal concentration of RTD-1 in the presence of serum would be less than 100 μg/mL. Such sub-antifungal concentrations can be determined experimentally (for example, by culture from a patient sample) or, preferably, from historical data. […]
# [8] = 5 mg/kg i.p. daily for 7 d from 24 h p.i.
# [9] = 5 mg/kg i.p. once a day for 7 days
# [10] = RPMI, lowest concentration giving 99% killing
# [11] = RPMI, lowest concentration that inhibited growth
# [12] = long term survivors 30 days p.i., FIG. 14
molecule,measurement,setting,value
"CC[C@H](C)C[C@H](C)CCCCCCCCC(=O)N[C@H]1C[C@@H](O)[C@@H](NCCN)NC(=O)[C@@H]2[C@@H](O)CCN2C(=O)[C@H]([C@H](O)CCN)NC(=O)[C@H]([C@H](O)[C@@H](O)c2ccc(O)cc2)NC(=O)[C@@H]2C[C@@H](O)CN2C(=O)[C@H]([C@@H](C)O)NC1=O [Caspofungin, caspofungin]",MFC,[1]; RPMI,2 µg/mL
same,MIC,[1]; RPMI,2 µg/mL
same,MFC,[2]; RPMI,>8 µg/mL
same,MIC,[2]; RPMI,>8 µg/mL
same,"survival compared to saline controls, P (log-rank analysis)",[3]; [8],3.4×10^−6
same,"survival efficacy, comparison in words",[3]; [9],not effective
same,MFC,[4]; [10],>256 µg/mL
same,MIC,[4]; [11],0.06 µg/mL
"OC(Cn1cncn1)(Cn1cncn1)c1ccc(F)cc1F [Fluconazole, fluconazole]","survival compared to saline controls, P (log-rank analysis)",[3]; [8],3.4×10^−6
same,renal fungal burden in kidney homogenates,"[3]; long term survivors 30 days p.i., peptide 0.1 or 0.25 mg/kg, fluconazole 5 mg/kg, FIG. 14",reduced fungal burden
same,MIC,[4]; [11],64 µg/mL
"MTD1280: model synthetic cyclic tetradecapeptide θ-defensin analog, SEQ ID NO. 6, used as reference peptide (GVCICRRRFCLCRR; cyclic; Synthetic cyclic peptide MTD1280)",survival benefit,"[3]; 0.1 mg/kg i.p. once a day for 7 days, FIG. 9",no survival benefit
same,"survival compared to saline controls, P (log-rank analysis)",[3]; 0.25 mg/kg i.p. daily for 7 d from 24 h p.i.,2.3×10^−7
same,"survival efficacy, comparison in words",[3]; 0.25 mg/kg i.p. once a day for 7 days,more effective than 5 mg/kg of RTD-1; also recorded: more effective than 5 mg/kg of fluconazole
same,transient mean reduction in bodyweight,"[3]; long term surviving treated candidemic mice, plateaued by day 10",15%
same,share of cohort that regained initial body weights,[3]; long term surviving treated mice; by day 3),90%
same,"renal fungal burden reduced to a greater extent than fluconazole, P (Fisher's LSD test)",[3]; [12],3×10^−3
"MTD1283: synthetic cyclic tetradecapeptide θ-defensin analog, SEQ ID NO. 4, two disulfide bonds (cyclo(GVCICRRRVCICRR); disulfide (positions not given here))",survival efficacy relative to MTD1280,[3],equivalent or superior to MTD1280
same,"renal fungal burden reduced to a greater extent than fluconazole, P (Fisher's LSD test)",[3]; [12],7.4×10^−3
same,survival by end point analysis versus fluconazole,[3]; fluconazole 5 mg/kg,more effective than fluconazole
"MTD1288: synthetic cyclic tetradecapeptide θ-defensin analog, SEQ ID NO. 5, two disulfide bonds (cyclo(GLCICRRRACLCRR); disulfide (positions not given here))",survival efficacy relative to MTD1280,[3],equivalent or superior to MTD1280
same,"renal fungal burden reduced to a greater extent than fluconazole, P (Fisher's LSD test)",[3]; [12],0.02
same,survival by end point analysis versus fluconazole,[3]; fluconazole 5 mg/kg,more effective than fluconazole
"MTD12810: synthetic cyclic tetradecapeptide θ-defensin analog, SEQ ID NO. 2, two disulfide bonds (Cys3-Cys12, Cys5-Cys10) (cyclo(GVCSCRRRFCLCRR); disulfide 5-10, 3-12)",survival efficacy relative to MTD1280,[3],equivalent or superior to MTD1280
same,"renal fungal burden reduced to a greater extent than fluconazole, P (Fisher's LSD test)",[3]; [12],3.5×10^−5
same,survival by end point analysis versus fluconazole,[3]; fluconazole 5 mg/kg,more effective than fluconazole
"MTD12811: synthetic cyclic tetradecapeptide θ-defensin analog, SEQ ID NO. 3, two disulfide bonds (cyclo(GVCSCRRRFCICRR); disulfide (positions not given here))",survival efficacy relative to MTD1280,[3],equivalent or superior to MTD1280
"RTD-1: naturally occurring rhesus θ-defensin, cyclic octadecapeptide with three disulfide bonds, SEQ ID NO. 1 (cyclo(GFCRCLCRRGVCRCICTR); disulfide (positions not given here); listed as Macaca mulatta)",MFC,[1]; 50% serum,>100 µg/mL
same,MIC,[1]; 50% serum,>100 µg/mL
same,MFC,[1]; RPMI,12.5 µg/mL
same,MIC,[1]; RPMI,6.25 µg/mL
same,in vitro antifungal activity in the presence of serum,"[5]; in vitro studies, serum",abolished by the presence of serum
same,in vitro concentration required relative to concentrations effective in vivo,[5]; in vitro versus murine model,≥ 50 fold
same,long term production of pro-inflammatory cytokines,"[6]; in vivo, treatment with RTD-1",reduction in long term production of pro-inflammatory cytokines
same,efficacy in animal models of systemic candidiasis,[6]; susceptible and multiple drug resistant strains,effective
same,MFC,[2]; 50% serum,>100 µg/mL
same,MIC,[2]; 50% serum,>100 µg/mL
same,MFC,[2]; RPMI,12.5 µg/mL
same,MIC,[2]; RPMI,12.5 µg/mL
same,"survival compared to saline controls, P (log-rank analysis)",[3]; [8],3.4×10^−6
same,"survival efficacy, comparison in words",[3]; [9],more effective than 5 mg/kg of fluconazole
same,sub-antifungal concentration,[7],less than 100 μg/mL
same,MFC,[4]; 50% serum,>100 µg/mL
same,MIC,[4]; 50% serum,>100 µg/mL
same,MFC,[4]; [10],25 µg/mL
same,MIC,[4]; [11],12.5 µg/mL
